From PubChem BioAssay AID180 (DTP/NCI, 2004) come the findings set out here.

The experiment concerns BDF1 mice, Adenocarcinoma 755 s.c., tumor weight T/C. Kind of experiment: NCI In Vivo Anticancer Drug Screen. Data for tumor model Adenocarcinoma 755 (subcutaneous) in B6D2F1 (BDF1) mice. The settings on record: endpoint: mean tumor weight, higher = larger tumour. In outline:
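Readout: T/C, i.e. treated-group measurement over vehicle-control measurement. Endpoint is survival or tumor size in tumor-bearing mice given compound.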

Setting [1] is: dose: 12.5 mg/kg/injection, schedule: Q01DX011 (ip), vehicle: methylcellulose (MC).
Setting [2] is: dose: 100.0 mg/kg/injection, schedule: Q01DX011 (ip), vehicle: carboxymethylcellulose (CMC).
[3] abbreviates: dose: 400.0 mg/kg/injection, schedule: Q01DX011 (ip), vehicle: carboxymethylcellulose (CMC).

Where “and” joins values, the source holds several entries; their conditions need not be identical. Equal values may be shown once.

For the compound `O=C(O)CCCc1ccc(N(CCCl)CCCl)cc1`, the T/C was 93 % of control (dose: 0.5 mg/kg/injection, schedule: Q01DX011 (ip), vehicle: carboxymethylcellulose (CMC)); 43 % of control (dose: 1.0 mg/kg/injection, schedule: Q01DX011 (ip), vehicle: carboxymethylcellulose (CMC)); 31 % of control (dose: 1.25 mg/kg/injection, schedule: Q01DX011 (ip), vehicle: methylcellulose (MC)); 60 % of control (dose: 1.81 mg/kg/injection, schedule: Q01DX011 (ip), vehicle: carboxymethylcellulose (CMC)); 38 % of control (dose: 1.94 mg/kg/injection, schedule: Q01DX011 (ip), vehicle: carboxymethylcellulose (CMC)); 99 % of control (dose: 2.0 mg/kg/injection, schedule: Q01DX011 (ip), vehicle: saline). For the same compound, the T/C runs as follows: (dose: 2.5 mg/kg/injection, schedule: Q01DX011 (ip), vehicle: methylcellulose (MC)) 89 % of control; (dose: 3.63 mg/kg/injection, schedule: Q01DX011 (ip), vehicle: carboxymethylcellulose (CMC)) 34 % of control; (dose: 3.88 mg/kg/injection, schedule: Q01DX011 (ip), vehicle: carboxymethylcellulose (CMC)) 37 % of control; (dose: 4.0 mg/kg/injection, schedule: Q01DX011 (ip), vehicle: saline) 49 % of control; (dose: 5.0 mg/kg/injection, schedule: Q01DX011 (ip), vehicle: methylcellulose (MC)) 33 % of control; (dose: 5.8 mg/kg/injection, schedule: Q01DX011 (ip), vehicle: carboxymethylcellulose (CMC)) 41 % of control. In addition, the T/C is, setting by setting: (dose: 6.2 mg/kg/injection, schedule: Q01DX011 (ip), vehicle: carboxymethylcellulose (CMC)) 75 % of control; (dose: 6.25 mg/kg/injection, schedule: Q01DX011 (ip), vehicle: methylcellulose (MC)) 26 % of control; (dose: 7.25 mg/kg/injection, schedule: Q01DX011 (ip), vehicle: carboxymethylcellulose (CMC)) 30 % of control and 48 % of control; (dose: 7.75 mg/kg/injection, schedule: Q01DX011 (ip), vehicle: carboxymethylcellulose (CMC)) 16 % of control and 29 % of control; (dose: 8.0 mg/kg/injection, schedule: Q01DX011 (ip), vehicle: saline) 37 % of control; (dose: 9.66 mg/kg/injection, schedule: Q01DX011 (ip), vehicle: carboxymethylcellulose (CMC)) 9 % of control. Further, the T/C (dose: 10.0 mg/kg/injection, schedule: Q01DX011 (ip), vehicle: methylcellulose (MC)) is 10 % of control; the T/C (dose: 10.33 mg/kg/injection, schedule: Q01DX011 (ip), vehicle: carboxymethylcellulose (CMC)) is 14 % of control; the T/C under setting [1] was 5 % of control; the T/C (dose: 14.5 mg/kg/injection, schedule: Q01DX011 (ip), vehicle: carboxymethylcellulose (CMC)) was 2 % of control and 6 % of control; the T/C (dose: 15.5 mg/kg/injection, schedule: Q01DX011 (ip), vehicle: carboxymethylcellulose (CMC)) is 4 % of control; the T/C (dose: 1812.0 micrograms/kg/injection, schedule: Q01DX011 (ip), vehicle: carboxymethylcellulose (CMC)) was 118 % of control. Moreover, the T/C runs as follows: (dose: 3625.0 micrograms/kg/injection, schedule: Q01DX011 (ip), vehicle: carboxymethylcellulose (CMC)) 58 % of control; (dose: 7250.0 micrograms/kg/injection, schedule: Q01DX011 (ip), vehicle: carboxymethylcellulose (CMC)) 59 % of control.

Turning to `CC(=O)OCC(=O)[C@@]1(O)CC[C@H]2[C@@H]3CCC4=CC(=O)[C@H](C)C[C@]4(C)[C@H]3[C@@H](O)C[C@@]21C`, the T/C is 52 % of control (dose: 6.2 mg/kg/injection, schedule: Q01DX011 (sc), vehicle: steriod suspending solution); 43 % of control (dose: 12.5 mg/kg/injection, schedule: Q01DX011 (sc), vehicle: steriod suspending solution); 13 % of control and 38 % of control (dose: 25.0 mg/kg/injection, schedule: Q01DX011 (sc), vehicle: steriod suspending solution); 32 % of control (dose: 50.0 mg/kg/injection, schedule: Q01DX011 (sc), vehicle: steriod suspending solution); 15 % of control (dose: 100.0 mg/kg/injection, schedule: Q01DX011 (sc), vehicle: steriod suspending solution); 4 % of control (dose: 400.0 mg/kg/injection, schedule: Q01DX011 (sc), vehicle: steriod suspending solution).

Regarding `CCCCNP(=O)(N1CC1C)N1CC1C` (stereo not drawn), the T/C runs as follows: (dose: 7.0 mg/kg/injection, schedule: Q01DX011 (ip), vehicle: saline) 53 % of control; (dose: 14.0 mg/kg/injection, schedule: Q01DX011 (ip), vehicle: saline) 53 % of control; (dose: 28.0 mg/kg/injection, schedule: Q01DX011 (ip), vehicle: saline) 25 % of control; (dose: 56.0 mg/kg/injection, schedule: Q01DX011 (ip), vehicle: saline) 1 % of control.

Regarding `Nc1nc(SCCc2ccccc2)c2[nH]cnc2n1`, the T/C was 106 % of control (dose: 31.25 mg/kg/injection, schedule: Q01DX011 (ip), vehicle: carboxymethylcellulose (CMC)); 97 % of control (dose: 50.0 mg/kg/injection, schedule: Q01DX011 (ip), vehicle: carboxymethylcellulose (CMC)); 52 % of control (dose: 62.5 mg/kg/injection, schedule: Q01DX011 (ip), vehicle: carboxymethylcellulose (CMC)); 81 % of control under setting [2]; 19 % of control (dose: 125.0 mg/kg/injection, schedule: Q01DX011 (ip), vehicle: carboxymethylcellulose (CMC)); 74 % of control (dose: 200.0 mg/kg/injection, schedule: Q01DX011 (ip), vehicle: carboxymethylcellulose (CMC)). Moreover, the T/C was 6 % of control (dose: 250.0 mg/kg/injection, schedule: Q01DX011 (ip), vehicle: carboxymethylcellulose (CMC)); 75 % of control under setting [3]; 22 % of control (dose: 800.0 mg/kg/injection, schedule: Q01DX011 (ip), vehicle: carboxymethylcellulose (CMC)).

On to `[N-]=[N+]=C1C(=O)NC(=O)N2C3CC(O)C(COC12)O3` (stereo not drawn), for which the T/C by setting is: (dose: 30.0 mg/kg/injection, schedule: Q01DX011 (ip), vehicle: saline) 87 % of control; (dose: 60.0 mg/kg/injection, schedule: Q01DX011 (ip), vehicle: saline) 80 % of control; (dose: 120.0 mg/kg/injection, schedule: Q01DX011 (ip), vehicle: saline) 97 % of control; (dose: 240.0 mg/kg/injection, schedule: Q01DX011 (ip), vehicle: saline) 68 % of control; under setting [3], 40 % of control.

In the case of `ClCCn1cnc2c(SCc3ccccc3Cl)ncnc21`, the T/C is 91 % of control (dose: 0.5 mg/kg/injection, schedule: Q01DX011 (ip), vehicle: other); 74 % of control (dose: 0.5 mg/kg/injection, schedule: Q01DX011 (oral), vehicle: other); 84 % of control (dose: 1.0 mg/kg/injection, schedule: Q01DX011 (ip), vehicle: other); 42 % of control and 47 % of control (dose: 2.0 mg/kg/injection, schedule: Q01DX011 (ip), vehicle: other); 109 % of control (dose: 2.0 mg/kg/injection, schedule: Q01DX011 (oral), vehicle: other); 75 % of control and 81 % of control (dose: 4.0 mg/kg/injection, schedule: Q01DX011 (oral), vehicle: other). Further, the T/C was 3 % of control (dose: 8.0 mg/kg/injection, schedule: Q01DX011 (ip), vehicle: other); 25 % of control and 32 % of control (dose: 8.0 mg/kg/injection, schedule: Q01DX011 (oral), vehicle: other); 5 % of control and 13 % of control (dose: 15.0 mg/kg/injection, schedule: Q01DX011 (oral), vehicle: other); 1 % of control (dose: 30.0 mg/kg/injection, schedule: Q01DX011 (oral), vehicle: other); 3 % of control under setting [2].

Turning to `Cc1cc2nc3c(=O)[nH]c(=O)nc-3n(CCO)c2cc1C`, the T/C was 98 % of control (dose: 800.0 mg/kg/injection, schedule: Q01DX011 (ip), vehicle: methylcellulose (MC)) and 95 % of control (dose: 1000.0 mg/kg/injection, schedule: Q01DX011 (ip), vehicle: methylcellulose (MC)).

In the case of `Nc1ncnc2c1cnn2CCCl`, the T/C by setting is: (dose: 1.5 mg/kg/injection, schedule: Q01DX011 (ip), vehicle: methylcellulose (MC)) 79 % of control; (dose: 1.5 mg/kg/injection, schedule: Q01DX011 (ip), vehicle: saline) 104 % of control; (dose: 3.1 mg/kg/injection, schedule: Q01DX011 (ip), vehicle: methylcellulose (MC)) 31 % of control; (dose: 3.1 mg/kg/injection, schedule: Q01DX011 (ip), vehicle: saline) 90 % of control; (dose: 4.0 mg/kg/injection, schedule: Q01DX011 (ip), vehicle: carboxymethylcellulose (CMC)) 50 % of control and 65 % of control; (dose: 6.2 mg/kg/injection, schedule: Q01DX011 (ip), vehicle: methylcellulose (MC)) 26 % of control and 33 % of control. In addition, the T/C runs as follows: (dose: 6.2 mg/kg/injection, schedule: Q01DX011 (ip), vehicle: saline) 73 % of control; under setting [1], 9 % of control; (dose: 12.5 mg/kg/injection, schedule: Q01DX011 (ip), vehicle: saline) 25 % of control; (dose: 16.0 mg/kg/injection, schedule: Q01DX011 (ip), vehicle: carboxymethylcellulose (CMC)) 35 % of control.

As a reminder, the T/C is the ratio of treated to control.
